Assay results published in the supplement of paper PMC10307832.

Tests used:
Assay in all cases: relative viability (nuclei count vs DMSO), 5 days (fraction); higher = more cells survive
[1] = compound: COc1cc([C@@H]2c3cc4c(cc3[C@@H](O[C@@H]3O[C@@H]5CO[C@@H](C)O[C@H]5[C@H](O)[C@H]3O)[C@H]3COC(=O)[C@H]23)OCO4)cc(OC)c1O [Etoposide] + O=C(c1cc(Cc2n[nH]c(=O)c3ccccc23)ccc1F)N1CCN(C(=O)C2CC2)CC1 [Olaparib] (partner 8 µM)
Outline: (§1)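 Cells from lung cancer lines were seeded into 1536-well plates and, one day later, dosed by pin tool. Treatments were either a single drug or a fixed dose of an anchor drug with five library-drug doses (not always all listed) in √10 steps. After 5 days, nuclei were stained in a one-step fixation (final 0.05% Triton X-100, 1% formaldehyde, 1 ug/ml Hoechst) and counted on 4× images, and relative viability is the treated-to-vehicle nuclei ratio, as the median of duplicate plates.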

[2] = compound: COc1cc([C@@H]2c3cc4c(cc3[C@@H](O[C@@H]3O[C@@H]5CO[C@@H](C)O[C@H]5[C@H](O)[C@H]3O)[C@H]3COC(=O)[C@H]23)OCO4)cc(OC)c1O [Etoposide] + O=C(CCCCCCC(=O)Nc1ccccc1)NO [Vorinostat] (partner 1 µM)
Outline: as §1

[3] = compound: CC1=C(N=C(N=C1N)[C@H](CC(=O)N)NC[C@@H](C(=O)N)N)C(=O)N[C@@H]([C@H](C2=CN=CN2)OC3C(C(C(C(O3)CO)O)O)OC4C(C(C(C(O4)CO)O)OC(=O)N)O)C(=O)N[C@H](C)[C@H]([C@H](C)C(=O)N[C@@H]([C@@H](C)O)C(=O)NCCC5=NC(=CS5)C6=NC(=CS6)C(=O)NCCC[S+](C)C)O [Bleomycin] + Nc1ncn([C@H]2C[C@H](O)[C@@H](CO)O2)c(=O)n1 [Decitabine] (partner 2 µM); conditions: main component drawn
Outline: as §1

[4] = compound: COc1cc([C@@H]2c3cc4c(cc3[C@@H](O[C@@H]3O[C@@H]5CO[C@@H](C)O[C@H]5[C@H](O)[C@H]3O)[C@H]3COC(=O)[C@H]23)OCO4)cc(OC)c1O [Etoposide] + C[C@]1(O)C[C@@H](c2nc(-c3ccc4ccc(-c5ccccc5)nc4c3)c3c(N)nccn32)C1 [Linsitinib] (partner 1 µM)
Outline: as §1

Q: Which results are given for UMC-11?
A: relative viability ([1]; first compound 0.01 µM): 0.326; relative viability ([1]; first compound 0.03162 µM): 0.331; relative viability ([1]; first compound 0.1 µM): 0.311; relative viability ([1]; first compound 0.3162 µM): 0.27; relative viability ([1]; first compound 1 µM): 0.28; relative viability ([2]; first compound 0.01 µM): 0.373; relative viability ([2]; first compound 0.03162 µM): 0.376; relative viability ([2]; first compound 0.1 µM): 0.323; relative viability ([2]; first compound 0.3162 µM): 0.228; relative viability ([2]; first compound 1 µM): 0.199; relative viability ([3]; first compound 0.01 µM): 0.493; relative viability ([3]; first compound 0.03162 µM): 0.509; relative viability ([3]; first compound 0.1 µM): 0.473; relative viability ([3]; first compound 0.3162 µM): 0.528; relative viability ([3]; first compound 1 µM): 0.404; relative viability ([4]; first compound 0.01 µM): 0.962; relative viability ([4]; first compound 0.03162 µM): 1.05; relative viability ([4]; first compound 0.3162 µM): 0.493; relative viability ([4]; first compound 1 µM): 0.302
